The supplement of paper PMC10307832

Assays:
Test in all cases: relative viability (nuclei count vs DMSO), 5 days (fraction); higher = more cells survive
[1] = compound: Cc1nc(Nc2ncc(C(=O)Nc3c(C)cccc3Cl)s2)cc(N2CCN(CCO)CC2)n1 [Dasatinib] + CC1(C)CCC(c2ccc(Cl)cc2)=C(CN2CCN(c3ccc(C(=O)NS(=O)(=O)c4ccc(N[C@H](CCN5CCOCC5)CSc5ccccc5)c(S(=O)(=O)C(F)(F)F)c4)cc3)CC2)C1 [Navitoclax] (partner 0.5 µM)
How it was run: (§1)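 A single step with final 0.05% Triton X-100, 1% formaldehyde and 1 ug/ml Hoechst fixed the cells and stained nuclei 5 days after treatment. Lung cancer cell lines in 1536-well plates had been treated by pin tool the day after seeding with one drug alone or a fixed anchor-drug dose plus five library-drug doses (not always all listed) in √10 steps, and nuclei were counted on 4× images. Relative viability is the ratio of nuclei in treated wells to nuclei in vehicle wells, taken as the median of duplicate plates.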

[2] = compound: Cc1ccc(C(=O)Nc2cccc(C(F)(F)F)c2)cc1Nc1cncc(C(N)=O)c1 [ALW-II-49-7] + NC(=O)Nc1cc(-c2cccc(F)c2)sc1C(=O)N[C@H]1CCCNC1 [AZD7762] (partner 0.2 µM)
How it was run: as §1

[3] = compound: Cc1nc(Nc2ncc(C(=O)Nc3c(C)cccc3Cl)s2)cc(N2CCN(CCO)CC2)n1 [Dasatinib] + Cc1nc(NC(=O)N2CCC[C@H]2C(N)=O)sc1-c1ccnc(C(C)(C)C(F)(F)F)c1 [Alpelisib] (partner 2 µM)
How it was run: as §1

[4] = compound: Cc1nc(Nc2ncc(C(=O)Nc3c(C)cccc3Cl)s2)cc(N2CCN(CCO)CC2)n1 [Dasatinib] + CS(=O)(=O)N1CCN(Cc2cc3nc(-c4cccc5[nH]ncc45)nc(N4CCOCC4)c3s2)CC1 [Pictilisib] (partner 1 µM)
How it was run: as §1

Row | Cell Line | relative viability ([1]; first compound 0.005 µM) | relative viability ([1]; first compound 0.01581 µM) | relative viability ([1]; first compound 0.05 µM) | relative viability ([1]; first compound 0.1581 µM) | relative viability ([1]; first compound 0.5 µM) | relative viability ([2]; first compound 0.08 µM) | relative viability ([2]; first compound 0.253 µM) | relative viability ([2]; first compound 0.8 µM) | relative viability ([2]; first compound 2.53 µM) | relative viability ([2]; first compound 8 µM) | relative viability ([3]; first compound 0.005 µM) | relative viability ([3]; first compound 0.01581 µM) | relative viability ([3]; first compound 0.05 µM) | relative viability ([3]; first compound 0.1581 µM) | relative viability ([3]; first compound 0.5 µM) | relative viability ([4]; first compound 0.005 µM) | relative viability ([4]; first compound 0.01581 µM) | relative viability ([4]; first compound 0.05 µM) | relative viability ([4]; first compound 0.1581 µM) | relative viability ([4]; first compound 0.5 µM)
1 | NCI-H23 | 0.828 | 0.716 | 0.896 | 0.496 | 0.315 | 0.163 | 0.263 | 0.147 | 0.227 | 0.224 | 0.597 | 0.549 | 0.615 | 0.403 | 0.323 | 0.335 | 0.26 | 0.376 | 0.28 | 0.181
2 | NCI-H1355 | 0.858 | 0.653 | 0.92 | 0.534 | 0.376 | 0.71 | 0.805 | 0.738 | 0.695 | 0.606 | 0.674 | 0.621 | 0.652 | 0.53 | 0.297 | 0.452 | 0.233 | 0.397 | 0.297 | 0.282
3 | A-427 | 0.891 | 0.92 | 0.673 | 0.476 | 0.495 | 0.714 | 0.814 | 0.634 | 0.759 | 0.482 | 0.961 | 1.06 | 1 | 0.573 | 0.533 | 0.705 | 0.674 | 0.663 | 0.511 | 0.461
4 | NCI-H1793 | 0.323 | 0.182 | 0.238 | 0.166 | 0.152 | 0.412 | 0.436 | 0.487 | 0.417 | 0.289 | 0.554 | 0.45 | 0.545 | 0.512 | 0.443 | 0.316 | 0.395 | 0.29 | 0.311 | 0.31
5 | NCI-H596 | 0.818 | 0.707 | 0.726 | 0.253 | 0.187 | 1.15 | 1.23 | 1.12 | 1.14 | 1.24 | 0.387 | 0.436 | 0.378 | 0.326 | 0.221 | 0.349 | 0.348 | 0.312 | 0.475 | 0.118
6 | LU99A | 0.748 | 0.924 | 0.88 | 0.828 | 0.385 | – | 0.376 | 0.294 | 0.312 | 0.626 | 0.494 | 0.5 | 0.477 | 0.288 | 0.192 | 0.332 | 0.347 | 0.293 | 0.25 | 0.194
